{
  "source": "patent US20240168030A1",
  "about": "“DIRECT FLUORESCENT GLYCAN LABELING” (BIO-TECHNE CORPORATION, priority 2019, published 2024)",
  "format_in_all_cases": "biochemical",
  "key": {"FUT8": {"target": "T1, FUT8 (Homo sapiens, UniProt Q9BYC5)", "T1 construct": "purchased Bio-Techne (Minneapolis, MN)", "T1 sequence (Q9BYC5 1-575)": "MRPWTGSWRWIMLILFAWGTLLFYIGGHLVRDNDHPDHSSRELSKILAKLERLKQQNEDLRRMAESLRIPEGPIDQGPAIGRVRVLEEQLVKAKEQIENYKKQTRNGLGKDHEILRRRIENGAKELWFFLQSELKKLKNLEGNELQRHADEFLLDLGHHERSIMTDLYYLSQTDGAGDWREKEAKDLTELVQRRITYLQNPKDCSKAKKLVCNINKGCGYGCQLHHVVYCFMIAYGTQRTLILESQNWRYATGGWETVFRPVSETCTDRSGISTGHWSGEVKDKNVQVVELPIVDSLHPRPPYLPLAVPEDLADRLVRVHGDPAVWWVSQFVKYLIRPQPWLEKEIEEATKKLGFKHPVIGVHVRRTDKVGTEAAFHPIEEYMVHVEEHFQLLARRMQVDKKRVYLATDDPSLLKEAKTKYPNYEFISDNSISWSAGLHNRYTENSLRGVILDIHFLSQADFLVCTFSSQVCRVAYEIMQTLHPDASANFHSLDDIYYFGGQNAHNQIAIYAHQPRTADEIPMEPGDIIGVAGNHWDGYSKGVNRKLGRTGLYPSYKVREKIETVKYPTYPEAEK", "assay": "Fluorescent labeling with fluorophore-conjugated fucose by FUT8", "parameters": "key to Tolerance of the fluorophore by FUT8: +++: indicated by number of + signs; ++: indicated by number of + signs; indicated by number of + signs", "conditions": "for Incorporation of conjugated fucose into antibodies by FUT8: Cantuzumab (FUT8 knockout cells) and NIST mAb 8671, FIG. 10A; for Tolerance of the fluorophore by FUT8: fluorophore-conjugated fucose donor, acceptor core GlcNAc of N-glycans, labeled Cantuzumab in FIG. 10", "description": "FIG. 10A-FIG. 10D show exemplary results of probing core-6 fucosylation on antibodies by FUT8 incorporation of fluorophores. FIG. 10A. Results of probing substrate glycans of FUT8 (F8) and FUT9 (F9) on Cantuzumab, an anti-Muc1 therapeutic antibody, and NIST reference mAb 8671 using guanosine 5′-diphosphate activated Alexa-Fluor®555 conjugated fucose (GDP-AF555-Fuc) (555), GDP-Cy5-fucose (Cy5), and guanosine 5′-diphosphate activated Alexa-Fluor®488 conjugated fucose (GDP-AF488-Fuc) (488) as donor substrates. Cantuzumab was expressed in FUT8 knockout cells and is devoid of core-6 fucose. Molecular marker (MM) is a prestained Western molecular marker (Bio-Rad Laboratories, Hercules, CA). […] The product of each reaction was separated using SDS-PAGE and imaged with trichloroethanol (TCE) staining (upper panel) and fluorescent imager (lower panel). Labeling on the light chains of the antibodies by Alexa-Fluor®555 is likely the result of non-specific staining due to the use of unpurified GDP-AF555-Fuc that contained free Alexa-Fluor®555. FIG. 10B. […] FIG. 10C. […] FIG. 10D. Schematics of the glycan structures analyzed in FIG. 10B and FIG. 10C.\n(§1) For a typical labeling reaction, 1 μg to 5 μg target protein was mixed with 0.2 nmol GDP-f-Fuc and 0.2 μg of a fucosyltransferase in 30 μL buffer of 25 mM Tris pH 7.5, 10 mM MnCl2. The mixture was incubated at 37° C. for 30 minutes. The reaction was then separated by sodium dodecyl sulfate—polyacrylamide gel electrophoresis (SDS-PAGE) and the gel was directly imaged using a fluorescent imager FluorChem M ProteinSimple, Bio-Techne, Minneapolis, MN), followed by imaging with traditional protein imaging methods such as silver staining or trichloroethanol (TCE) staining.\nAlthough FUT8 was known to tolerate azido-fucose (Wu et al. Biochem Biophys Res Commun 473, 524-529 (2016)), it was unknown whether FUT8 could tolerate a fluorophore-conjugated fucose. To test whether FUT8 could tolerate the fluorophore-conjugated fucose and detect its substrate glycans, two substrates were used: Cantuzumab was prepared from a FUT8 knockout cell line, and a reference monoclonal antibody from the National Institute of Standards and Technology (NIST mAb, material 8671, Gaithersburg, MD). The NIST mAb is a humanized IgG1κ monoclonal antibody (Kashi et al. MAbs 10, 922-933 (2018)). IgG antibodies are known to contain an N-glycan site on their heavy chains (Reusch et al. Glycobiology 25, 1325-1334 (2015))."}, "FUT7": {"target": "T2, FUT7 (Homo sapiens, UniProt Q11130)", "T2 sequence (Q11130 1-342)": "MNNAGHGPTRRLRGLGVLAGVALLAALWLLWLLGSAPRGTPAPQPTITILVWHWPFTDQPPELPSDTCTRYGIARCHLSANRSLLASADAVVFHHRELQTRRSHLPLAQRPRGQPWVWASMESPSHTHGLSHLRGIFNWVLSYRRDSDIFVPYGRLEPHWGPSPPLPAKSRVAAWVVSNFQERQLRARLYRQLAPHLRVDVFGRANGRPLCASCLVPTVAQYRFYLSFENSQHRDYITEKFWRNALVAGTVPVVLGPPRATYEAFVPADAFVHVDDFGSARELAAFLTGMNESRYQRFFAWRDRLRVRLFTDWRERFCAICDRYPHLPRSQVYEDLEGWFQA", "assay": "Fluorescent labeling with fluorophore-conjugated fucose by FUT7", "parameters": "key to Tolerance of the fluorophore by FUT7: +++: indicated by number of + signs; ++: indicated by number of + signs; indicated by number of + signs", "conditions": "for Tolerance of the fluorophore by FUT7: fluorophore-conjugated fucose donor, acceptor GlcNAc of sialylactosamine, FIG. 9", "description": "(§2) FIG. 9A-FIG. 9B show exemplary results of probing substrate glycans of various fucosyltransferases on fetuin and asialofetuin. FIG. 9A. Probing substrate glycans of fucosyltransferases with guanosine 5′-diphosphate activated Cy5 conjugated fucose (GDP-Cy5-Fuc). […] FUT9 labeled itself (indicated by an arrow in the gel). FIG. 9B. Tolerance of Alexa-Fluor®555 (555), Alexa-Fluor®488 (488), and Cy5 by the indicated fucosyltransferases. All reactions were incubated at 37° C. for 30 minutes and then separated on SDS-PAGE and imaged with silver staining (upper panels) and fluorescent imager (lower panels). M, molecular marker.\nas §1\n(§3) The four enzymes tolerated the three fluorophores to different levels."}, "FUT6": {"target": "T3, FUT6 (Homo sapiens, UniProt P51993)", "T3 sequence (P51993 1-359)": "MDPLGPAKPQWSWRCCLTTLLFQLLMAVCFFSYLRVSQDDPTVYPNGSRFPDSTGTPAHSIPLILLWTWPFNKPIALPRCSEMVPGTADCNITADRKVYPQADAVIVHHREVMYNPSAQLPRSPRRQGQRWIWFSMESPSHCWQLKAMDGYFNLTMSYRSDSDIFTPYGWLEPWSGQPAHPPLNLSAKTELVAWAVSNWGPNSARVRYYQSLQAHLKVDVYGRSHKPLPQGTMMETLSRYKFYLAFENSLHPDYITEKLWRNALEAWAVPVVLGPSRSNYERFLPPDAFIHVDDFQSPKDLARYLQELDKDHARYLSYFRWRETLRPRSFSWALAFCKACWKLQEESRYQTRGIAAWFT", "assay": "Fluorescent labeling with fluorophore-conjugated fucose by FUT6", "parameters": "key: +++: indicated by number of + signs; ++: indicated by number of + signs; indicated by number of + signs", "conditions": "fluorophore-conjugated fucose donor; acceptor GlcNAc of lactosamine, sialylation on terminal Gal is flexible; FIG. 9", "description": "as §2, §1, §3"}},
  "data": [
    {"substance": "guanosine 5′-diphosphate activated Alexa-Fluor®488 conjugated fucose [GDP-AF488-Fuc]", "values": [
      {"measurement": "Incorporation of conjugated fucose into antibodies by FUT8", "setting": "FUT8", "value": "introduced into Cantuzumab but not to NIST mAb"},
      {"measurement": "Tolerance of the fluorophore by FUT8", "setting": "FUT8", "value": "++"},
      {"measurement": "Fluorophore preference of FUT7", "setting": "FUT7; among Cy5-, AlexaFluor® 488-, and AlexaFluor® 555-conjugated fucoses, FIG. 9B", "value": "preferred"},
      {"measurement": "Tolerance of the fluorophore by FUT7", "setting": "FUT7", "value": "++"},
      {"measurement": "Tolerance of the fluorophore by FUT6", "setting": "FUT6", "value": "++"}
    ]},
    {"substance": "guanosine 5′-diphosphate activated Alexa-Fluor®555 conjugated fucose [GDP-AF555-Fuc]", "values": [
      {"measurement": "Incorporation of conjugated fucose into antibodies by FUT8", "setting": "FUT8", "value": "introduced into Cantuzumab but not to NIST mAb"},
      {"measurement": "Tolerance of the fluorophore by FUT8", "setting": "FUT8", "value": "++"},
      {"measurement": "Tolerance of the fluorophore by FUT7", "setting": "FUT7", "value": "+"},
      {"measurement": "Tolerance of the fluorophore by FUT6", "setting": "FUT6", "value": "++"}
    ]}
  ]
}
